{
  "source": "patent US4558060A",
  "about": "“Benzoxazolinones” (Riom Laboratories - Cerm S.A., priority 1982, dated 1985)",
  "key": {"dogs": {"test_system": "dogs", "assay": "Pentobarbital-induced heart failure in anaesthetized dogs, intraduodenal administration", "assay_type": "in vivo", "settings": "1 mg/kg I.D.; for Aortic capacity / Bradycardia and hypotension induced by pentobarbital / Inotropic effect: after 20 minutes", "description": "In addition to the activity pattern described above the compounds of formula I, in which R1 and R2 both represent hydrogen have a particularly beneficial effect in the treatment of heart failure. The latter activity has been tested using a technique derived from Deitchman and Snyder, Arch.Int. Pharmacodyn. 250, 65 (1981).\nAfter having been anaesthesized dogs under articicial respiration are connected with pieces of apparatus for continuous monitoring the left intraventicular pressure, the dP/dt max, the amplitude of the left ventricular contraction, the aortic capacity, the heart frequency and the arteric pressure.\nHeart failure is induced by intravenous administration of pentobarbital at a dose of 20 mg per kg body weight per minute until a decrease of 50% of dP/dt max is obtained after which this level is maintained by pentobarbital administration at a dose of 0.4 mg/kg/min. Ten minutes after the beginning of this heart failure effect the products to be tested are administered. The results are compared with those obtained using Dopamine and Dobutamine as reference compounds.\nThen the test was repeated by administering the products intraduodenally (I.D.). Dopamine and Dobutamine were administered at a dose of 10 mg/kg I.D. and the compounds of the invention at a dose of 1 mg/kg."}, "[1]": {"assay": "Acute toxicity (mortality after 24 hours)", "settings": "mouse, in vivo, po", "experimental": "(§1) The acute toxicity and central nervous system activity of the compounds of the invention were investigated in mice using various test-models. These tests were carried out in accordance with the procedures summarised below.\nMale mice of the OF1, IFFA, CREDO strain and having an average weight of 22±1 g, receive, by oesophagial intubation, a solution of arabic gum and distilled water (1/2-1/2) containing the compound to be studied, at a rate of 0.25 ml per 20 g of body weight. The symptomatology of the intoxication was observed and the mortality was recorded after 24 hours."}, "mice [2]": {"test_system": "mice", "assay": "Spontaneous motility", "assay_type": "in vivo", "settings": "Mus musculus, 20 min, read-out: Spontaneous motility, variation; for change in vivo at 25 mg/kg: dose 25 mg.kg^-1", "experimental": "as §1\nGroups of 4 mice prepared as above are placed in circular corridors intersected by infrared beams, making it possible to count the number of movements made by the animals. The number of movements is summed up after 20 minutes and the results are expressed as the percentage variation relative to the group of control animals, which have only received the vehicle (gum arabic/water)."}, "mice [3]": {"test_system": "mice", "assay": "Hypnotic activity (sleep induction time, sleep time)", "assay_type": "in vivo", "experimental": "as §1\nMice receive, by intraperitoneal administration, 0.25 ml per 20 g of body weight of a solution consisting of arabic gum and of 0.154M NaCl solution (1/2-1/2) containing 12.5 mg.kg.^-1 of the compound to be studied, and the \"sleep induction time\"--the time taken for the loss of righting reflex to appear after the animal has been placed in the dorsal decubitus position--and the \"sleep time\"--the duration of the above loss of reflex--are then noted. For this test, pentobarbital is given as a reference, administered at a dose of 50 mg.kg.^-1."}, "[4]": {"settings": "dose 50 mg.kg^-1, relative to control animals, 20 minutes"}, "[5]": {"settings": "mice, oesophagial intubation, mortality after 24 hours, read-out: Estimated LD 50"}, "[6]": {"settings": "relative to control animals, 20 minutes"}, "[7]": {"settings": "pentobarbital reference, 50 mg.kg^-1"}},
  "note": "Counter-ions that a name gives are not always drawn. Like-named read-outs stand apart in the source and are kept apart here.",
  "data": [
    {"smiles": "Cn1c(=O)oc2cc(CCN)ccc21", "note": "[Compound 2, 3-Methyl-6-(2-aminoethyl)-benzoxazolinone(hydrochloride)]", "values": [
      {"measurement": "Duration of the effects", "setting": "dogs", "value": "at least 60 minutes"},
      {"measurement": "Aortic capacity", "setting": "dogs", "value": "increase of the aortic capacity"},
      {"measurement": "Bradycardia and hypotension induced by pentobarbital", "setting": "dogs", "value": "recovery of the bradycardia and the hypotension induced by pentobarbital"},
      {"measurement": "Inotropic effect", "setting": "dogs", "value": "strong positive inotropic effect"}
    ]},
    {"smiles": "Cn1c(=O)oc2cc(CCN3CCN(c4cccc(C(F)(F)F)c4)CC3)ccc21", "note": "[Compound 3]", "values": [
      {"measurement": "LD50 at 24 h", "setting": "[1]", "value": 1000, "unit": "mg/kg"},
      {"measurement": "change in vivo at 50 mg/kg", "setting": "mice [2]; [4]", "value": -97.5, "unit": "%"}
    ]},
    {"smiles": "Cn1c(=O)oc2cc(CCN3CCOCC3)ccc21", "note": "[Compound 4]", "values": [
      {"measurement": "LD50 at 24 h", "setting": "[1]; [5]", "value": 1200, "unit": "mg/kg"},
      {"measurement": "change in vivo at 12.5 mg/kg", "setting": "mice [2]; dose 12.5 mg.kg^-1, relative to control animals, 20 minutes", "value": -11.9, "unit": "%"}
    ]},
    {"smiles": "Cn1c(=O)oc2cc(CCN3CCN(c4ncccn4)CC3)ccc21", "note": "[Compound 7]", "values": [
      {"measurement": "LD50 at 24 h", "setting": "[1]", "value": 1200, "unit": "mg/kg"},
      {"measurement": "change in vivo at 50 mg/kg", "setting": "mice [2]; [4]", "value": -69.9, "unit": "%"}
    ]},
    {"smiles": "O=c1[nH]c2ccc(CCN3CCN(c4cccc(C(F)(F)F)c4)CC3)cc2o1", "note": "[Compound 8]", "values": [
      {"measurement": "LD50 at 24 h", "setting": "[1]", "value": 1000, "unit": "mg/kg"},
      {"measurement": "change in vivo at 25 mg/kg", "setting": "mice [2]; [6]", "value": -93.5, "unit": "%"}
    ]},
    {"smiles": "COc1ccccc1N1CCN(CCc2ccc3c(c2)oc(=O)n3C)CC1", "note": "[Compound 9, 3-Methyl-6-(2-[4-(2-methoxyphenyl)-piperazin-1-yl]-ethyl)-benzoxazolinone]", "values": [
      {"measurement": "LD50 at 24 h", "setting": "[1]; [5]", "value": 600, "unit": "mg/kg"},
      {"measurement": "change in vivo at 6.25 mg/kg", "setting": "mice [2]", "value": -93.2, "unit": "%"},
      {"measurement": "Hypnotic activity, sleep induction time", "setting": "mice [3]; 12.5 mg.kg^-1, intraperitoneal", "value": "18 ± 7.5", "unit": "min"},
      {"measurement": "Hypnotic activity, sleep time", "setting": "mice [3]; 12.5 mg.kg^-1, intraperitoneal", "value": "46.2 ± 15", "unit": "min"}
    ]},
    {"smiles": "COc1ccccc1N1CCN(CCc2ccc3[nH]c(=O)oc3c2)CC1", "note": "[Compound 10, 6-(2-[4-(2-methoxyphenyl)-piperazin-1-yl]-ethyl)-benzoxazolinone]", "values": [
      {"measurement": "LD50 at 24 h", "setting": "[1]; [5]", "value": 1000, "unit": "mg/kg"},
      {"measurement": "change in vivo at 6.25 mg/kg", "setting": "mice [2]", "value": -99.3, "unit": "%"},
      {"measurement": "Hypnotic activity, sleep induction time", "setting": "mice [3]; 12.5 mg.kg^-1, intraperitoneal", "value": "18.2 ± 4.3", "unit": "min"},
      {"measurement": "Hypnotic activity, sleep time", "setting": "mice [3]; 12.5 mg.kg^-1, intraperitoneal", "value": "86 ± 15", "unit": "min"}
    ]},
    {"smiles": "CNCCc1ccc2[nH]c(=O)oc2c1", "note": "[Compound 12]", "values": [
      {"measurement": "LD50 at 24 h", "setting": "[1]; [5]", "value": 1200, "unit": "mg/kg"},
      {"measurement": "change in vivo at 50 mg/kg", "setting": "mice [2]", "value": -28, "unit": "%"}
    ]},
    {"smiles": "NCCc1ccc2[nH]c(=O)oc2c1", "note": "[Compound 15]", "values": [
      {"measurement": "LD50 at 24 h", "setting": "[1]; [5]", "value": 1200, "unit": "mg/kg"},
      {"measurement": "change in vivo at 50 mg/kg", "setting": "mice [2]", "value": -23.2, "unit": "%"},
      {"measurement": "Aortic capacity", "setting": "dogs", "value": "increase of the aortic capacity"},
      {"measurement": "Bradycardia and hypotension induced by pentobarbital", "setting": "dogs", "value": "recovery of the bradycardia and the hypotension induced by pentobarbital"},
      {"measurement": "Inotropic effect", "setting": "dogs", "value": "strong positive inotropic effect"}
    ]},
    {"smiles": "Cn1c(=O)oc2cc(CCNC3CC3)ccc21", "note": "[Compound 16]", "values": [
      {"measurement": "LD50 at 24 h", "setting": "[1]; [5]", "value": 600, "unit": "mg/kg"},
      {"measurement": "change in vivo at 50 mg/kg", "setting": "mice [2]", "value": -34.4, "unit": "%"}
    ]},
    {"smiles": "O=c1[nH]c2ccc(CCN3CCN(c4ncccn4)CC3)cc2o1", "note": "[Compound 17]", "values": [
      {"measurement": "LD50 at 24 h", "setting": "[1]", "value": 480, "unit": "mg/kg"},
      {"measurement": "change in vivo at 25 mg/kg", "setting": "mice [2]; [6]", "value": -62.8, "unit": "%"}
    ]},
    {"smiles": "Cn1c(=O)oc2cc(CCN3CCN(c4ccc(F)cc4)CC3)ccc21", "note": "[Compound 18, 3-Methyl-6-(-[4-(4-fluorophenyl)-piperazin-1-yl]-ethyl)-benzoxazolinone]", "values": [
      {"measurement": "LD50 at 24 h", "setting": "[1]; [5]", "value": 1000, "unit": "mg/kg"},
      {"measurement": "change in vivo at 6.25 mg/kg", "setting": "mice [2]", "value": -98.8, "unit": "%"},
      {"measurement": "Hypnotic activity, sleep induction time", "setting": "mice [3]; 12.5 mg.kg^-1, intraperitoneal", "value": "26.9 ± 6", "unit": "min"},
      {"measurement": "Hypnotic activity, sleep time", "setting": "mice [3]; 12.5 mg.kg^-1, intraperitoneal", "value": "132 ± 25", "unit": "min"}
    ]},
    {"smiles": "O=c1[nH]c2ccc(CCN3CCN(c4ccc(F)cc4)CC3)cc2o1", "note": "[Compound 19]", "values": [
      {"measurement": "LD50 at 24 h", "setting": "[1]; [5]", "value": 1000, "unit": "mg/kg"},
      {"measurement": "change in vivo at 6.25 mg/kg", "setting": "mice [2]", "value": -97, "unit": "%"},
      {"measurement": "Hypnotic activity (in words)", "setting": "mice [3]; 12.5 mg.kg^-1, intraperitoneal", "value": "strong hypnotic activity"},
      {"measurement": "Hypnotic activity, sleep induction time", "setting": "mice [3]; 12.5 mg.kg^-1, intraperitoneal", "value": "15.1 ± 2", "unit": "min"},
      {"measurement": "Hypnotic activity, sleep time", "setting": "mice [3]; 12.5 mg.kg^-1, intraperitoneal", "value": "78 ± 16", "unit": "min"}
    ]},
    {"smiles": "CCCC(C)C1(CC)C(=O)NC(=O)NC1=O", "note": "(stereo not drawn) [pentobarbital, reference compound]", "values": [
      {"measurement": "Hypnotic activity, sleep induction time (reference)", "setting": "mice [3]; [7]", "value": "9.5 ± 2.2", "unit": "min"},
      {"measurement": "Hypnotic activity, sleep time (reference)", "setting": "mice [3]; [7]", "value": "48 ± 7", "unit": "min"}
    ]}
  ]
}
